Data reported in PubChem BioAssay AID330 (DTP/NCI, 2004).
Where “and” joins values, the source holds several entries; their conditions need not be identical. Equal values may be shown once. Toxic doses and inconclusive results are not listed. How the source made its calls: active means survival T/C of 150% or more; inactive means T/C below 125% in these data.

Test system: P388 leukemia ip, CD2F1 mice, survival T/C
Assay: NCI In Vivo Anticancer Drug Screen. Data for tumor model P388 Leukemia (intraperitoneal) in CD2F1 (CDF1) mice
Conditions: endpoint: median survival time, higher = longer survival
Method in brief: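 Mice carrying the transplanted tumor received test compound or vehicle. Survival was recorded in each group, and the value is the treated-group measurement divided by that of the vehicle-treated control group.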

[1] = dose: 100.0 mg/kg/injection, schedule: Q01DX009 (ip), vehicle: saline with Tween-80
[2] = dose: 200.0 mg/kg/injection, schedule: Q01DX009 (ip), vehicle: saline with Tween-80
[3] = dose: 6.25 mg/kg/injection, schedule: Q01DX009 (ip), vehicle: saline
[4] = dose: 12.5 mg/kg/injection, schedule: Q01DX009 (ip), vehicle: saline
[5] = dose: 50.0 mg/kg/injection, schedule: Q01DX009 (ip), vehicle: saline with Tween-80
[6] = dose: 60.0 mg/kg/injection, schedule: Q01DX005 (ip), vehicle: Klucel (hydroxypropylcellulose) (HPC)
[7] = dose: 120.0 mg/kg/injection, schedule: Q01DX005 (ip), vehicle: Klucel (hydroxypropylcellulose) (HPC)
[8] = dose: 50.0 mg/kg/injection, schedule: Q01DX005 (ip), vehicle: Klucel (hydroxypropylcellulose) (HPC)
[9] = dose: 100.0 mg/kg/injection, schedule: Q01DX005 (ip), vehicle: Klucel (hydroxypropylcellulose) (HPC)
[10] = dose: 200.0 mg/kg/injection, schedule: Q01DX005 (ip), vehicle: Klucel (hydroxypropylcellulose) (HPC)

Measured: T/C

COc1cc(/C=N/NC(=O)c2cccs2)cc(OC)c1OC
inactive: [1] 95 % of control | [2] 100 % of control | dose: 400.0 mg/kg/injection, schedule: Q01DX009 (ip), vehicle: saline with Tween-80 100 % of control

C[N+]12CCCCC1CC2 (stereo not drawn)
inactive: [3] 89 % of control | [4] 88 % of control | dose: 25.0 mg/kg/injection, schedule: Q01DX009 (ip), vehicle: saline 91 % of control

O=C1OCC/C1=C\N1CCCCC1
inactive: dose: 60.0 mg/kg/injection, schedule: Q01DX005 (ip), vehicle: saline 102 % of control | dose: 120.0 mg/kg/injection, schedule: Q01DX005 (ip), vehicle: saline 100 % of control | dose: 240.0 mg/kg/injection, schedule: Q01DX005 (ip), vehicle: saline 106 % of control

CCCC1(CCC)CCC2C3CCC4CC(O)CCC4(C)C3CCC2(C)N1O (stereo not drawn)
inactive: dose: 100.0 mg/kg/injection, schedule: Q01DX001 (ip), vehicle: Klucel (hydroxypropylcellulose) (HPC) 92 % of control | dose: 200.0 mg/kg/injection, schedule: Q01DX001 (ip), vehicle: Klucel (hydroxypropylcellulose) (HPC) 89 % of control | dose: 400.0 mg/kg/injection, schedule: Q01DX001 (ip), vehicle: Klucel (hydroxypropylcellulose) (HPC) 91 % of control

N#CC1C(=O)NC(=O)C(C#N)C1c1ccncc1 (stereo not drawn)
inactive: dose: 50.0 mg/kg/injection, schedule: Q01DX009 (ip), vehicle: Klucel (hydroxypropylcellulose) (HPC) 103 % of control | dose: 100.0 mg/kg/injection, schedule: Q01DX009 (ip), vehicle: Klucel (hydroxypropylcellulose) (HPC) 104 % of control | dose: 200.0 mg/kg/injection, schedule: Q01DX009 (ip), vehicle: Klucel (hydroxypropylcellulose) (HPC) 103 % of control

C[N+]1(CSC(=O)c2ccccc2)CCCCC1
inactive: dose: 3.12 mg/kg/injection, schedule: Q01DX009 (ip), vehicle: saline 110 % of control | [3] 114 % of control | dose: 12.5 mg/kg/injection, schedule: Q01DX009 (ip), vehicle: saline with Tween-80 115 % of control and 91 % of control | [4] 107 % of control and 110 % of control | [5] 100 % of control and 116 % of control

CNC(=O)c1ccccc1Sc1ccccc1C(=O)NC
inactive: dose: 100.0 mg/kg/injection, schedule: Q01DX001 (ip), vehicle: other 100 % of control | dose: 200.0 mg/kg/injection, schedule: Q01DX001 (ip), vehicle: other 101 % of control | dose: 400.0 mg/kg/injection, schedule: Q01DX001 (ip), vehicle: other 100 % of control

CSc1nsc(SC)c1C(N)=O
inactive: [6] 99 % of control | [7] 98 % of control | dose: 240.0 mg/kg/injection, schedule: Q01DX005 (ip), vehicle: Klucel (hydroxypropylcellulose) (HPC) 105 % of control

COc1ccc2cc(Cl)c3ccccc3c2c1
inactive: dose: 50.0 mg/kg/injection, schedule: Q01DX005 (ip), vehicle: saline with Tween-80 87 % of control | dose: 100.0 mg/kg/injection, schedule: Q01DX005 (ip), vehicle: saline with Tween-80 90 % of control | dose: 200.0 mg/kg/injection, schedule: Q01DX005 (ip), vehicle: saline with Tween-80 86 % of control

CCOC(=O)NC(=N/C(=C/c1cccc(C)n1)c1ccccc1)c1ccccc1
inactive: [6] 93 % of control | [7] 91 % of control

O=C(CCSCCC(=O)N/N=C/C(O)C(O)C(O)CO)N/N=C/C(O)C(O)C(O)CO (stereo not drawn)
inactive: [8] 103 % of control and 97 % of control | [9] 99 % of control and 94 % of control | [10] 99 % of control and 95 % of control

C=Cc1ccc2cccc(O)c2n1
inactive: dose: 25.0 mg/kg/injection, schedule: Q01DX001 (ip), vehicle: saline with Tween-80 106 % of control | dose: 50.0 mg/kg/injection, schedule: Q01DX001 (ip), vehicle: saline with Tween-80 106 % of control | dose: 100.0 mg/kg/injection, schedule: Q01DX001 (ip), vehicle: saline with Tween-80 89 % of control and 94 % of control

CC(=O)OC(C)C1C2=C(C(=O)CC1(C)O)C(=O)c1c(ccc(-c3ccc4c(c3O)C(=O)C3=C(C4=O)C(C(C)OC(C)=O)C(C)(O)CC3=O)c1O)C2=O (stereo not drawn)
inactive: dose: 3.13 mg/kg/injection, schedule: Q01DX009 (ip), vehicle: saline with Tween-80 122 % of control | dose: 6.25 mg/kg/injection, schedule: Q01DX009 (ip), vehicle: saline with Tween-80 119 % of control

CCCCC(NC(=O)OCc1ccccc1)C(=O)NC(Cc1c[nH]c2ccccc12)C(=O)O (stereo not drawn)
inactive: [8] 95 % of control | [9] 101 % of control | [10] 92 % of control

Cc1nc(N)[nH]c(=O)c1CCCNc1ccc(C(=O)NC(CCC(=O)O)C(=O)O)cc1 (stereo not drawn)
inactive: [8] 100 % of control | [9] 97 % of control | [10] 100 % of control

CN(/N=C/c1ccccc1O)C(=O)c1ccccc1N
inactive: [5] 105 % of control | [1] 107 % of control | [2] 104 % of control
